{"source": "patent US8758816B2", "about": "“Compositions comprising azelastine and methods of use thereof” (priority 2004, dated 2014)", "tested_on": "patients with seasonal allergic rhinitis (SAR)", "assay": "MP 428 study: adverse events, Safety Population", "type": "in vivo, human", "description": "A two-week, randomized, double-blind study, which evaluated the effects of the co-administration of ASTELIN® (azelastine hydrochloride (HCl)) and FLONASE® (fluticasone propionate) compared to either product alone in patients with seasonal allergic rhinitis (SAR) was conducted during the 2006 Texas mountain cedar season. After a 5-day placebo lead-in period, 151 patients with moderate-to-severe allergic rhinitis symptoms were randomized to either: (1) (49 total patients) ASTELIN® (azelastine hydrochloride (HCl)) plus placebo saline nasal spray 2 sprays per nostril, 15 minutes apart, twice daily (AM & PM); (2) (50 total patients) FLONASE® (fluticasone propionate) plus placebo saline nasal spray, 2 sprays per nostril, 15 minutes apart, once daily (AM) and two sessions of placebo saline nasal spray, 2 sprays per nostril, 15 minutes apart (PM); or (3) (52 total patients) the co-administration of ASTELIN® (azelastine hydrochloride (HCl)) 2 sprays per nostril plus FLONASE® (fluticasone propionate) 2 sprays per nostril (AM), 15 minutes apart, and ASTELIN® (azelastine hydrochloride (HCl)) 2 sprays per nostril plus placebo saline nasal spray, 15 minutes apart, (PM) for a 2-week double-blind treatment period.\nThe most common adverse events (AEs) were bitter taste (8.2% in ASTELIN® (azelastine hydrochloride (HCl)) group, 2.0% in FLONASE® (fluticasone propionate) group, 13.5% in co-administration group) and headache (4.1% in ASTELIN® (azelastine hydrochloride (HCl)) group, 4.0% in FLONASE® (fluticasone propionate) group, 5.8% in co-administration group). No other AE was reported by more than one patient in any treatment group. There were no discontinuations due to AEs.", "key": {"[1]": {"settings": "Possibly related to study drug, Safety Population"}, "[2]": {"settings": "Probably related to study drug, Safety Population"}, "[3]": {"settings": "Total (possibly or probably related), Safety Population"}}, "note": "Structures can show the parent of a compound that is named as a salt.", "data": [{"smiles": "CN1CCCC(n2nc(Cc3ccc(Cl)cc3)c3ccccc3c2=O)CC1", "note": "(racemic) [Azelastine, (±)-1-(2H)-phthalazinone, 4-[(4-chlorophenyl)methyl]-2-(hexahydro-1-methyl-1H-azepin-4-yl)-, mono-hydrochloride]", "values": [{"measurement": "Primary Reason for Discontinuation From Study: Adverse Event", "setting": "All Randomized Patients", "value": "0 (0.0) N (%)"}, {"measurement": "Number (%) Patients With Treatment-Related AEs by Maximum Severity", "setting": "Mild", "value": "1 (2.0) Number (%)"}, {"measurement": "Number (%) Patients With Treatment-Related AEs by Maximum Severity", "setting": "Moderate", "value": "0 (0.0) Number (%)"}, {"measurement": "Treatment-Related Adverse Events: Any Adverse Event", "setting": "[1]", "value": "1 (2.0) No. of Patients (%)"}, {"measurement": "Treatment-Related Adverse Events: DRY MOUTH", "setting": "[1]", "value": "0 (0.0) No. of Patients (%)"}, {"measurement": "Treatment-Related Adverse Events: DYSGEUSIA", "setting": "[1]", "value": "1 (2.0) No. of Patients (%)"}, {"measurement": "Treatment-Related Adverse Events: EPISTAXIS", "setting": "[1]", "value": "0 (0.0) No. of Patients (%)"}, {"measurement": "Treatment-Related Adverse Events: GASTROINTESTINAL DISORDERS, Any Preferred Term", "setting": "[1]", "value": "1 (2.0) No. of Patients (%)"}, {"measurement": "Treatment-Related Adverse Events: HEADACHE", "setting": "[1]", "value": "0 (0.0) No. of Patients (%)"}, {"measurement": "Treatment-Related Adverse Events: NASAL DISCOMFORT", "setting": "[1]", "value": "0 (0.0) No. of Patients (%)"}, {"measurement": "Treatment-Related Adverse Events: NERVOUS SYSTEM DISORDERS, Any Preferred Term", "setting": "[1]", "value": "0 (0.0) No. of Patients (%)"}, {"measurement": "Treatment-Related Adverse Events: RESPIRATORY, THORACIC AND MEDIASTINAL DISORDERS, Any Preferred Term", "setting": "[1]", "value": "0 (0.0) No. of Patients (%)"}, {"measurement": "Treatment-Related Adverse Events: STOMACH DISCOMFORT", "setting": "[1]", "value": "0 (0.0) No. of Patients (%)"}, {"measurement": "Treatment-Related Adverse Events: Any Adverse Event", "setting": "[2]", "value": "3 (6.1) No. of Patients (%)"}, {"measurement": "Treatment-Related Adverse Events: DRY MOUTH", "setting": "[2]", "value": "0 (0.0) No. of Patients (%)"}, {"measurement": "Treatment-Related Adverse Events: DYSGEUSIA", "setting": "[2]", "value": "3 (6.1) No. of Patients (%)"}, {"measurement": "Treatment-Related Adverse Events: EPISTAXIS", "setting": "[2]", "value": "0 (0.0) No. of Patients (%)"}, {"measurement": "Treatment-Related Adverse Events: GASTROINTESTINAL DISORDERS, Any Preferred Term", "setting": "[2]", "value": "3 (6.1) No. of Patients (%)"}, {"measurement": "Treatment-Related Adverse Events: HEADACHE", "setting": "[2]", "value": "0 (0.0) No. of Patients (%)"}, {"measurement": "Treatment-Related Adverse Events: NASAL DISCOMFORT", "setting": "[2]", "value": "0 (0.0) No. of Patients (%)"}, {"measurement": "Treatment-Related Adverse Events: NERVOUS SYSTEM DISORDERS, Any Preferred Term", "setting": "[2]", "value": "0 (0.0) No. of Patients (%)"}, {"measurement": "Treatment-Related Adverse Events: RESPIRATORY, THORACIC AND MEDIASTINAL DISORDERS, Any Preferred Term", "setting": "[2]", "value": "0 (0.0) No. of Patients (%)"}, {"measurement": "Treatment-Related Adverse Events: STOMACH DISCOMFORT", "setting": "[2]", "value": "0 (0.0) No. of Patients (%)"}, {"measurement": "Number (%) Patients With Any AEs: All Treatment-Related AEs", "setting": "Safety Population", "value": "4 (8.2) Number (%)"}, {"measurement": "Number (%) of Deaths", "setting": "Safety Population", "value": "0 (0.0) Number (%)"}, {"measurement": "Number (%) of Patients With Serious AEs", "setting": "Safety Population", "value": "0 (0.0) Number (%)"}, {"measurement": "Number of Adverse Events Reported: All Treatment-Emergent AEs", "setting": "Safety Population", "value": 9}, {"measurement": "Number of Adverse Events Reported: All Treatment-Related AEs", "setting": "Safety Population", "value": 4}, {"measurement": "Number (%) Patients With Treatment-Related AEs by Maximum Severity", "setting": "Severe", "value": "3 (6.1) Number (%)"}, {"measurement": "Treatment-Emergent AE: Any Adverse Event", "setting": "Total", "value": "8 (16.3) No. of Patients (%)"}, {"measurement": "Treatment-Emergent AE: DRY MOUTH", "setting": "Total", "value": "0 (0.0) No. of Patients (%)"}, {"measurement": "Treatment-Emergent AE: DYSGEUSIA", "setting": "Total", "value": "4 (8.2) No. of Patients (%)"}, {"measurement": "Treatment-Emergent AE: EAR AND LABYRINTH DISORDERS, Any Preferred Term", "setting": "Total", "value": "1 (2.0) No. of Patients (%)"}, {"measurement": "Treatment-Emergent AE: EAR PAIN", "setting": "Total", "value": "1 (2.0) No. of Patients (%)"}, {"measurement": "Treatment-Emergent AE: EPISTAXIS", "setting": "Total", "value": "0 (0.0) No. of Patients (%)"}, {"measurement": "Treatment-Emergent AE: GASTROINTESTINAL DISORDERS, Any Preferred Term", "setting": "Total", "value": "4 (8.2) No. of Patients (%)"}, {"measurement": "Treatment-Emergent AE: HEADACHE", "setting": "Total", "value": "2 (4.1) No. of Patients (%)"}, {"measurement": "Treatment-Emergent AE: MUSCULOSKELETAL AND CONNECTIVE TISSUE DISORDERS, Any Preferred Term", "setting": "Total", "value": "1 (2.0) No. of Patients (%)"}, {"measurement": "Treatment-Emergent AE: MYALGIA", "setting": "Total", "value": "0 (0.0) No. of Patients (%)"}, {"measurement": "Treatment-Emergent AE: NASAL DISCOMFORT", "setting": "Total", "value": "0 (0.0) No. of Patients (%)"}, {"measurement": "Treatment-Emergent AE: NECK PAIN", "setting": "Total", "value": "1 (2.0) No. of Patients (%)"}, {"measurement": "Treatment-Emergent AE: NERVOUS SYSTEM DISORDERS, Any Preferred Term", "setting": "Total", "value": "2 (4.1) No. of Patients (%)"}, {"measurement": "Treatment-Emergent AE: PHARYNGOLARYNGEAL PAIN", "setting": "Total", "value": "1 (2.0) No. of Patients (%)"}, {"measurement": "Treatment-Emergent AE: RESPIRATORY, THORACIC AND MEDIASTINAL DISORDERS, Any Preferred Term", "setting": "Total", "value": "1 (2.0) No. of Patients (%)"}, {"measurement": "Treatment-Emergent AE: STOMACH DISCOMFORT", "setting": "Total", "value": "0 (0.0) No. of Patients (%)"}, {"measurement": "Treatment-Related Adverse Events: Any Adverse Event", "setting": "[3]", "value": "4 (8.2) No. of Patients (%)"}, {"measurement": "Treatment-Related Adverse Events: DRY MOUTH", "setting": "[3]", "value": "0 (0.0) No. of Patients (%)"}, {"measurement": "Treatment-Related Adverse Events: DYSGEUSIA", "setting": "[3]", "value": "4 (8.2) No. of Patients (%)"}, {"measurement": "Treatment-Related Adverse Events: EPISTAXIS", "setting": "[3]", "value": "0 (0.0) No. of Patients (%)"}, {"measurement": "Treatment-Related Adverse Events: GASTROINTESTINAL DISORDERS, Any Preferred Term", "setting": "[3]", "value": "4 (8.2) No. of Patients (%)"}, {"measurement": "Treatment-Related Adverse Events: HEADACHE", "setting": "[3]", "value": "0 (0.0) No. of Patients (%)"}, {"measurement": "Treatment-Related Adverse Events: NASAL DISCOMFORT", "setting": "[3]", "value": "0 (0.0) No. of Patients (%)"}]}]}
